Where two headings read alike, the source gives them in different places.
Tests used:
BRD4 BD1 = BRD4 BD1 (Homo sapiens (Human), UniProt O60885); assay: NanoBRET bromodomain assay, NanoLuc-BRD4-BD1 fusion in HEK293 cells; format: cell-based; details: top concentration 10 μM
BRD4 BD2 = BRD4 BD2 (Homo sapiens (Human), UniProt O60885); assay: NanoBRET bromodomain assay, NanoLuc-BRD4-BD2 fusion in HEK293 cells; details: for IC50: NanoBRET, HEK293 cells, top concentration 10 μM; for Fold selectivity: IC50 for BRD4 BD1 divided by IC50 for BRD4 BD2, qualitative if an IC50 is at the upper limit;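 on all read-outs here: tracer displacement BRET read in transfected cells after 2 h compound exposure at 37 °C, signal in milliBRET units corrected against no-tracer background wells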

IC50 (BRD4 BD1) [µM]	IC50 (BRD4 BD2; BRD4 BD2 (IC50)) [µM]	Fold selectivity (BRD4 BD2)	IC50 (BRD4 BD2; read-out: BRD4 BD2 (IC50)) [µM]	BRD4 BD2 % Activity Remaining @ 10 uM (BRD4 BD2; 10 uM, (2) = second batch) [%]	remaining activity at 10 µM (BRD4 BD2; HEK293, read-out: BRD4 BD2 % Activity Remaining @ 10 uM, 10 uM, (2) = second batch) [%]	SMILES
≥ 10	> 10	— (Fold ≥0 and ≤2)				CCNC(=O)c1cc(OC(C)c2ccccc2F)c(C(=O)NC)[nH]1 (single isomer, unassigned) [Example 21, N^5-ethyl-3-(1-(2-fluorophenyl)ethoxy)-N^2-methyl-1H-pyrrole-2,5-dicarboxamide]
≥ 10	< 0.05	XXX (Fold >200)				CCNC(=O)c1cc(OC(C)c2ccc(C)cc2)c(C(=O)NC)[nH]1 (single isomer, unassigned) [Example 25, N^5-ethyl-N^2-methyl-3-(1-(p-tolyl)ethoxy)-1H-pyrrole-2,5-dicarboxamide]
≥ 10	> 10	— (Fold ≥0 and ≤2)				CCNC(=O)c1cc(OC(C)c2ccc(C)cc2)c(C(=O)NC)[nH]1 (single isomer, unassigned) [Example 26, N^5-ethyl-N^2-methyl-3-(1-(p-tolyl)ethoxy)-1H-pyrrole-2,5-dicarboxamide]
≥ 10	> 10	— (Fold ≥0 and ≤2)				CCNC(=O)c1cc(OC(C)c2ccc(Cl)cc2F)c(C(=O)NC)[nH]1 (single isomer, unassigned) [Example 42, 3-(1-(4-chloro-2-fluorophenyl)ethoxy)-N^5-ethyl-N^2-methyl-1H-pyrrole-2,5-dicarboxamide]
≥ 10	> 10	— (Fold ≥0 and ≤2)				CCNC(=O)c1cc(OC(C)c2ccc(Br)cc2)c(C(=O)NC)[nH]1 (single isomer, unassigned) [Example 50, 3-(1-(4-bromophenyl)ethoxy)-N^5-ethyl-N^2-methyl-1H-pyrrole-2,5-dicarboxamide]
≥ 10	> 10	— (Fold ≥0 and ≤2)				CCNC(=O)c1cc(OC(C)c2ccc(I)cc2)c(C(=O)NC)[nH]1 (single isomer, unassigned) [Example 52, N^5-ethyl-3-(1-(4-iodophenyl)ethoxy)-N^2-methyl-1H-pyrrole-2,5-dicarboxamide]
≥ 10	> 10	— (Fold ≥0 and ≤2)				CCNC(=O)c1cc(OC(C)c2c(C)cccc2C)c(C(=O)NC)[nH]1 (single isomer, unassigned) [Example 65, 3-(1-(2,6-dimethylphenyl)ethoxy)-N^5-ethyl-N^2-methyl-1H-pyrrole-2,5-dicarboxamide]
≥ 10	> 10	— (Fold ≥0 and ≤2)				CCNC(=O)c1cc(OC(C)c2c(Cl)cccc2Cl)c(C(=O)NC)[nH]1 (single isomer, unassigned) [Example 66, 3-(1-(2,6-dichlorophenyl)ethoxy)-N^5-ethyl-N^2-methyl-1H-pyrrole-2,5-dicarboxamide]
≥ 10		— (Fold ≥0 and ≤2)	> 10			CCNC(=O)c1cc(OC(C)c2c(Cl)cccc2Cl)c(C(=O)NC)[nH]1 (single isomer, unassigned) [Example 67, 3-(1-(2,6-dichlorophenyl)ethoxy)-N^5-ethyl-N^2-methyl-1H-pyrrole-2,5-dicarboxamide]
≥ 10	0.05 to 0.2	XX (Fold >50 and ≤200)				CCNC(=O)c1cc(OC(C)c2ccc(OC)cc2)c(C(=O)NC)[nH]1 (single isomer, unassigned) [Example 75, N^5-ethyl-3-(1-(4-methoxyphenyl)ethoxy)-N^2-methyl-1H-pyrrole-2,5-dicarboxamide]
≥ 10	> 10	— (Fold ≥0 and ≤2)				CCNC(=O)c1cc(OC(C)c2ccc(OC)cc2)c(C(=O)NC)[nH]1 (single isomer, unassigned) [Example 76, N^5-ethyl-3-(1-(4-methoxyphenyl)ethoxy)-N^2-methyl-1H-pyrrole-2,5-dicarboxamide]
≥ 10	> 10	— (Fold ≥0 and ≤2)				CCNC(=O)c1cc(OC(C)c2cccc(C#N)c2)c(C(=O)NC)[nH]1 (stereo not shown) [Example 4, 3-(1-(3-cyanophenyl)ethoxy)-N^5-ethyl-N^2-methyl-1H-pyrrole-2,5-dicarboxamide]
≥ 10	0.2 to 1	X (Fold >2 and ≤50)				CNC(=O)c1[nH]c(C(=O)NCC(F)(F)F)cc1O[C@@H](C)c1ccccc1F [Example 57, (S)-3-(1-(2-fluorophenyl)ethoxy)-N^2-methyl-N^5-(2,2,2-trifluoroethyl)-1H-pyrrole-2,5-dicarboxamide]
≥ 10	0.05 to 0.2	XX (Fold >50 and ≤200)				CNC(=O)c1[nH]c(C(=O)NC(C)C)cc1O[C@@H](C)c1ccccc1F [Example 58, (S)-3-(1-(2-fluorophenyl)ethoxy)-N^5-isopropyl-N^2-methyl-1H-pyrrole-2,5-dicarboxamide]

Further lines, the compound ahead of its results:

SMILES	IC50 (BRD4 BD1) [µM]	IC50 (BRD4 BD2; BRD4 BD2 (IC50)) [µM]	Fold selectivity (BRD4 BD2)	IC50 (BRD4 BD2; read-out: BRD4 BD2 (IC50)) [µM]	BRD4 BD2 % Activity Remaining @ 10 uM (BRD4 BD2; 10 uM, (2) = second batch) [%]	remaining activity at 10 µM (BRD4 BD2; HEK293, read-out: BRD4 BD2 % Activity Remaining @ 10 uM, 10 uM, (2) = second batch) [%]
CNC(=O)c1[nH]c(C(=O)N[C@H]2CC[C@H](O)CC2)cc1OC(C)c1ccc(Cl)cc1F (single isomer, unassigned) [Example 37, 3-(1-(4-chloro-2-fluorophenyl)ethoxy)-N^5-(trans-4-hydroxycyclohexyl)-N^2-methyl-1H-pyrrole-2,5-dicarboxamide]	≥ 10	1 to 10	— (Fold ≥0 and ≤2)			
CCNC(=O)c1cc(OC(C)c2ccnnc2)c(C(=O)NC)[nH]1 (single isomer, unassigned) [Example 78, N^5-ethyl-N^2-methyl-3-(1-(pyridazin-4-yl)ethoxy)-1H-pyrrole-2,5-dicarboxamide]	≥ 10	> 10	— (Fold ≥0 and ≤2)			
CCNC(=O)c1cc(OC(C)c2ccnnc2)c(C(=O)NC)[nH]1 (single isomer, unassigned) [Example 79, N^5-ethyl-N^2-methyl-3-(1-(pyridazin-4-yl)ethoxy)-1H-pyrrole-2,5-dicarboxamide]	≥ 10	1 to 10	— (Fold ≥0 and ≤2)			
CNC(=O)c1[nH]c(C(=O)N[C@H]2CC[C@H](O)CC2)cc1O[C@@H](C)c1ccnnc1 (single isomer, unassigned) [Example 91, N^5-(4-hydroxycyclohexyl)-N^2-methyl-3-(1-(pyridazin-4-yl)ethoxy)-1H-pyrrole-2,5-dicarboxamide]	≥ 10	> 10	— (Fold ≥0 and ≤2)			
CNC(=O)c1[nH]c(C(=O)N[C@H]2CC[C@H](O)CC2)cc1O[C@@H](C)c1ccnnc1 (single isomer, unassigned) [Example 93, N^5-(4-hydroxycyclohexyl)-N^2-methyl-3-(1-(pyridazin-4-yl)ethoxy)-1H-pyrrole-2,5-dicarboxamide]	≥ 10		— (Fold ≥0 and ≤2)	> 10		
CNC(=O)c1[nH]c(C(=O)N[C@H]2CC[C@H](O)CC2)cc1O[C@@H](C)c1ccnnc1 (single isomer, unassigned) [Example 94, N^5-(4-hydroxycyclohexyl)-N^2-methyl-3-(1-(pyridazin-4-yl)ethoxy)-1H-pyrrole-2,5-dicarboxamide]	≥ 10		— (Fold ≥0 and ≤2)	> 10		
CNC(=O)c1[nH]c(-c2ncc(C)[nH]2)cc1O[C@@H](C)c1ccccc1 [23 (2)*]	≥ 10	> 10	— (Fold ≥0 and ≤2)		61	
CNC(=O)c1[nH]c(-c2ncc(C)[nH]2)cc1O[C@H](C)c1ccccc1 [Example 24, (R)-N-methyl-5-(5-methyl-1H-imidazol-2-yl)-3-(1-phenylethoxy)-1H-pyrrole-2-carboxamide]	≥ 10	1 to 10				41
CNC(=O)c1[nH]c(C(=O)NCC(F)(F)F)cc1O[C@@H](C)c1ccc(Cl)cc1 [Example 60, (S)-3-(1-(4-chlorophenyl)ethoxy)-N^2-methyl-N^5-(2,2,2-trifluoroethyl)-1H-pyrrole-2,5-dicarboxamide]	≥ 10	0.05 to 0.2	XX (Fold >50 and ≤200)			
CNC(=O)c1[nH]c(-c2cc(C)nn2C)cc1O[C@@H](C)c1ccccc1 [Example 81, (S)-5-(1,3-dimethyl-1H-pyrazol-5-yl)-N-methyl-3-(1-phenylethoxy)-1H-pyrrole-2-carboxamide]	≥ 10	0.05 to 0.2	XX (Fold >50 and ≤200)			
CNC(=O)c1[nH]c(-c2cc(C)nn2C)cc1O[C@H](C)c1ccccc1 [Example 82, (R)-5-(1,3-dimethyl-1H-pyrazol-5-yl)-N-methyl-3-(1-phenylethoxy)-1H-pyrrole-2-carboxamide]	≥ 10	> 10	— (Fold ≥0 and ≤2)			
CNC(=O)c1[nH]c(-c2cnn(C(F)(F)F)c2)cc1O[C@@H](C)c1ccccc1 [Example 83, (S)-N-methyl-3-(1-phenylethoxy)-5-(1-(trifluoromethyl)-1H-pyrazol-4-yl)-1H-pyrrole-2-carboxamide]	≥ 10	< 0.05	XXX (Fold >200)			
CNC(=O)c1[nH]c(-c2ccccc2)cc1O[C@@H](C)c1ccccc1 [Example 84, (S)-N-methyl-5-phenyl-3-(1-phenylethoxy)-1H-pyrrole-2-carboxamide]	≥ 10	1 to 10	X (Fold >2 and ≤50)			
CNC(=O)c1[nH]c(-c2ccccc2F)cc1O[C@@H](C)c1ccccc1 [Example 85, (S)-5-(2-fluorophenyl)-N-methyl-3-(1-phenylethoxy)-1H-pyrrole-2-carboxamide]	≥ 10	1 to 10	X (Fold >2 and ≤50)			
